Earlier results in patent US20110105450A1, “OPHTHALMIC FORMULATIONS OF FLUTICASONE AND METHODS OF USE” (Aciex Therapeutics, Inc., priority 2009, published 2011).
≈ marks a conversion by molar mass, not a printed value.

CCC(=O)O[C@]1(C(=O)SCF)[C@H](C)C[C@H]2[C@@H]3C[C@H](F)C4=CC(=O)C=C[C@]4(C)[C@@]3(F)[C@@H](O)C[C@@]21C [Fluticasone propionate, S-fluoromethyl-6-α-9-difluoro-11-β-hydroxy-16-α-methyl-3-oxoandrosta-1,4-diene-17-β-carbothioate, 17-propionate]
solubility in 95% ethanol (95% ethanol): slightly soluble
solubility in dimethyl sulfoxide (dimethyl sulfoxide): freely soluble
solubility in dimethyl-formamide (dimethyl-formamide): freely soluble
solubility in methanol (methanol): slightly soluble
solubility in water (water): 0.14 µg/mL (≈ 0.28 µM)
